Experimental findings from patent US20130064794A1, “Substituted Carbonyloxymethylphosphoramidate Compounds and Pharmaceutical Compositions for the Treatment of Viral Infections” (IDENIX PHARMACEUTICALS, INC., priority 2011, published 2013) are described below.

The structures appear in SMILES notation.

Data set [1] is described as follows: Cytotoxicity evaluation, CellTiter-Blue Cell Viability Assay. The following applies: human, Zluc cells (Huh-7-derived cell line), read-out: HCV Replicon CC50. It counts as cell-based. As for the experimental part: (§1) For cytotoxicity evaluation, Zluc cells were treated with compound as described above, and cell viability was monitored using the CellTiter-Blue Cell Viability Assay (Promega) by adding 20 μL of the assay solution to each well. The plates were then incubated at 37° C./5% CO2 for at least 3 hours.
In general terms: Resazurin is reduced to fluorescent resorufin, in cell work by metabolically active cells.

Data set [2] is described as follows: Stability in human liver S9 fraction (HLS9). Format: in vitro ADME. The following applies: 10 μM, 1.0 mg/mL protein, NADPH, 60 min. As for the experimental part: Stability of Compound 1 and its diastereomer were determined in subcellular fractions (microsomes and S9) of human liver and intestine in duplicate for each matrix. Pooled liver and intestinal microsomal, intestinal and liver S9 proteins (1.0 mg/mL), suspended in incubation buffer (100 mM potassium phosphate, pH 7.4, 5 mM MgCl2, and 0.1 mM EDTA), were preincubated for 5 min at 37° C. with 10 μM of a test compound from a 10 mM stock solution in DMSO (final DMSO concentration was 0.1%); the reaction was initiated by the addition of NADPH (3 mM final concentration). At specific times (0 and 60 min), 0.1 mL samples were taken and the reaction terminated by the addition of 4 volumes of stop solution (acetonitrile with 500 ng/mL carbutamide as an internal standard). The samples were vortexed for 30 sec and then centrifuged at 16,000 g for 10 min. 100 μL of supernatants were transferred to 96 deep-well plates preloaded with 100 μL distilled water and analyzed after mixing by LC-MS/MS. The MS peak area ratio of the test compound versus the internal standard was calculated and percent unchanged test compound over 60 minutes was calculated using this ratio.

For data set [3], the system named is Zluc cells (Huh-7-derived cell line). Description: Cytotoxicity evaluation, CellTiter-Blue Cell Viability Assay. It counts as cell-based. The following applies: read-out: HCV Replicon CC50. As for the experimental part:
as §1

As for `CCOC(=O)OC(C)OP(=O)(N[C@@H](C)C(=O)OC(C)C)OC[C@H]1O[C@@H](n2cnc3c(OC)nc(N)nc32)[C@](C)(F)[C@@H]1O` (single isomer, unassigned) [Compound 14], the cytotoxic concentration (CC50) in data set [1] was > 50 µM. Further, the “Percent Remaining, HLS9 (1 hr)” value in data set [2] is 0.7%.

As for `CCOC(=O)OC(C)OP(=O)(N[C@@H](C)C(=O)OC(C)C)OC[C@H]1O[C@@H](n2cnc3c(OC)nc(N)nc32)[C@](C)(F)[C@@H]1O` (single isomer, unassigned) [Compound 15], the half-maximal cytotoxic concentration (CC50) in data set [3] is > 50 µM. The “Percent Remaining, HLS9 (1 hr)” value in data set [2] was 0%.

Usually CC50 stands for the concentration that lowers cell viability or growth by half.
